# Values of other authors as cited in patent publication US20150258078A1 (priority 2014, published 2015).
# Read-outs that look alike come from different tables or passages of the source.
# What was measured:
# [1] = tested on: type 2 diabetic and nondiabetic subjects; settings: 61.4 micromol/day for 28 days; for VLDL, mean of absolute differences between 0 and 28 day treatment +/- S.E.M. / triacylglycerol, mean of absolute differences between 0 and 28 day treatment +/- S.E.M.: plasma
# [2] = tested on: male inbred BHE (IN-BHE) rats; settings: after the injection of 300 µg
# [3] = tested on: patients with elevated cholesterol and triglycerides; settings: multiple clinical trials; daily intakes 600 to 1200 mg/day
Compound,"VLDL, mean of absolute differences between 0 and 28 day treatment +/- S.E.M. ([1]; diabetic group)","triacylglycerol, mean of absolute differences between 0 and 28 day treatment +/- S.E.M. ([1]; diabetic group)","cholesterol, glucose and insulin ([1]; diabetic or nondiabetic subjects)","VLDL, mean of absolute differences between 0 and 28 day treatment +/- S.E.M. ([1]; nondiabetic group)","triacylglycerol, mean of absolute differences between 0 and 28 day treatment +/- S.E.M. ([1]; nondiabetic group)",plasma levels of lactate and pyruvate [2],HDL cholesterol increased [3] [%],total cholesterol decreased [3] [%],triglycerides decreased [3] [%]
O=C(O)CCCC[C@@H]1SC[C@@H]2NC(=O)N[C@@H]21 [Biotin],−0.11+/−0.04,−0.55+/−0.2,no significant effects,−0.18+/−0.07,−0.92+/−0.36,fell,,,
Pantethine,,,,,,,9,12,18
